Measured values published in patent US20230346884A1, “Molecular Targets for Modulation of Dissociative and Associative States” (The Board of Trustees of the Leland Stanford Junior …, priority 2020, published 2023).
“Also recorded” adds a separate entry of the source.

Columns and labels:
[1] = tested on: retrosplenial cortex (RSP); test: Widefield (pan-cortical) imaging of cortical activity in GCaMP6s mice; settings: widefield imaging; i.p.; ketamine 50 mg/kg subanesthetic dose; other drugs at doses of b234
Method: (2 mg/kg), lidocaine (topical), LSD ((+)-Lysergic acid diethylamide (+)-tartrate (2:1), 0.3 mg/kg), and diazepam (2 mg/kg). […] For anti-depressant effects, human doses are typically 0.3-1 mg/kg, and in mouse 3-10 mg/kg.
As described^8, mice were anesthetized with isoflurane, the scalp was removed, the skull cleaned and dried, and a custom head-plate was cemented to contacts over the cerebellum and in front of the olfactory bulb. The skull was then covered in a thin layer of cyanoacrylate glue (Apollo 2000, Cyberbond), clear dental acrylic (Ortho-Jet, Lang Dental), and clear nail polish (Electron Microscopy Services). […] (0.1 mg/kg) was injected subcutaneously for pain management. […] Imaging was performed on a custom-built fluorescence microscope designed for high light collection efficiency and large field of view. […] Alternating 410 nm and 488 nm illumination for non-Ca^2+ dependent artifact removal was controlled using a microcontroller (Arduino) slaved to the frame output trigger of the camera.
Analysis was performed using custom MATLAB (MathWorks) scripts. Widefield imaging videos were registered to a 2D top-projection atlas generated from the annotated Allen Brain Atlas volume, version CCFv2, in MATLAB (MathWorks), using an affine transformation computed from four manually selected control points. Each video was DF/F normalized, using the median for each pixel over the entire time series as F. The 410 nm channel was then temporally smoothed using a moving average (width=400 ms). The smoothed 410 nm DF/F signal for each pixel was regressed onto the 488 nm DF/F signal for the corresponding pixel, and the regression coefficients were used to scale the 410 nm channel to the 488 nm channel. This scaled 410 nm DF/F signal was then subtracted from the 488 nm DF/F signal to produce a normalized signal for each pixel. For quantification, activity traces were extracted from points centered in five cortical regions (visual, somatosensory, parietal, motor, retrosplenial) on the left hemisphere of the brain. The video data was Gaussian smoothed spatially (radius=2 pixels). Similarly, for fiber photometry recordings, the 410 nm signal was regressed onto the 488 nm signal, the 410 nm signal was scaled by the regression coefficients, and then subtracted from the 488 nm signal.
Each trace (corresponding to either a fiber photometry signal, a cellular two-photon signal, a widefield regional centroid, a widefield pixel, an sEEG trace, or a smoothed spike rate Neuropixels trace) was z-scored, and the power spectral density (PSD) was then estimated using Welch's method (pwelch( ) in Matlab), with a window size of 10*fs (15*fs for human sEEG) where fs is the sampling rate of the signal. The average band power within a specified band (i.e. 1-3 Hz) was then computed by integrating the PSD estimate (bandpower in Matlab). For displaying the traces of individual cells, traces were each zscored by subtracting the mean value of the trace (across the whole recorded time window) and dividing by the standard deviation of the trace. Unless otherwise indicated, the PSD was computed across the time window from minutes 10 to 11 post-injection.

mice [2] = test: Tail suspension test; format: in vivo, mouse; settings: PCP 5 mg/kg
Method: Tail Suspension Test: Mouse activity was recorded using a 60 Hz web camera. Struggling activity was quantified for minutes 2-10. […] Illumination began 30 seconds before tails were secured with tape and suspended from the beam. Mice were excluded if they climbed on their own tails.

mice [3] = test: Resident-intruder social interaction assay; format: in vivo, mouse; settings: PCP 5 mg/kg
Method: Social Interaction Assay: Resident-intruder social interaction was recorded for two minutes. Interactions were defined as close physical proximity behaviors, including sniffing, touching, and following. […] Illumination began 30 seconds before the same-sex intruder mouse was introduced.

mice [4] = test: Open field test; format: in vivo, mouse; settings: 5 min; vs saline; doses of b234
Excerpt: Open Field Test: Mice were placed in an evenly illuminated 50 cm×50 cm open field test box. Mouse position was captured using a webcam and Viewer software (Biobserve).

mice [5] = test: Hot plate test; settings: for Dissociation-like behavior: disconnection between sensory-detection and affective responses: other drug classes, doses of b234
Method: Hot Plate Test: Mice were placed on the hot plate (Bioseb), which was set to 55° C. and surrounded by a clear circular perimeter. Mouse activity was recorded using two cameras from different angles. The experiment ended when the mouse jumped to escape or 90 seconds had elapsed. Care was taken to clean and dry the hot plate apparatus between animals. For optogenetic experiments, mice were connected to patch cords and then returned to a holding cage. Illumination began 30 seconds before mice were placed on the hot plate.

Compound	Cortical activity pattern: 1-3 Hz oscillation localized to retrosplenial cortex (RSP) [1]	Longer-timescale escape behavior (mice [2])	Social behavior (mice [3])	Open-field locomotion velocity (mice [4])	Dissociation-like behavior: disconnection between sensory-detection and affective responses (mice [5])	Responsivity to salient stimuli (time-to-jump, rearing/socialization) (mice [5]; LSD 0.3 mg/kg)
C[C@]12N[C@H](Cc3ccccc31)c1ccccc12 [MK-801]	induced the RSP-localized oscillation	–	–	–	–	–
CC12CC3CC(C)(C1)CC(N)(C3)C2 [Memantine, memantine]	did not elicit oscillation	–	–	–	–	–
c1ccc(C2(N3CCCCC3)CCCCC2)cc1 [PCP, phencyclidine]	induced the RSP-localized oscillation	inhibited longer-timescale escape and social behaviors	inhibited longer-timescale escape and social behaviors	locomotion velocity was unchanged	recapitulated ketamine's behavioral disconnection between sensory-detection and affective responses in the hot-plate test	–
Cc1cccc([C@H](C)c2cnc[nH]2)c1C [dexmedetomidine]	elicited waves of cortical activity without RSP restriction	–	–	–	–	–
CN1C(=O)CN=C(c2ccccc2)c2cc(Cl)ccc21 [diazepam]	Neither the GABAergic sedative diazepam nor the centrally-acting opioid-analgesic buprenorphine elicited the rhythm	–	–	decreased velocity	did not recapitulate dissociative-like behavior	–
CC(C)c1cccc(C(C)C)c1O [propofol]	elicited waves of cortical activity without RSP restriction	–	–	–	–	–
(+)-Lysergic acid diethylamide (+)-tartrate (2:1) [LSD]	did not elicit oscillation	–	–	reducing locomotion in the stimulus-poor open-field; also recorded: decreased velocity	disrupted neither sensory-detection nor affective responses	tended to increase responsivity to salient stimuli (decreased time-to-jump, increased rearing/socialization)
